Reference: US9585988B2, “Anchorage devices comprising an active pharmaceutical ingredient” (TYRX, Inc., priority 2010, dated 2017)

Tests used:
myofibroblast formation = settings: Ajmal et al. (2003); cited from earlier work
[1] = Tissue concentration of antibiotic after implantation; assay type: in vivo; settings: other: implantation
[2] = Pocket concentration of antibiotic after implantation; assay type: in vivo; settings: other: implantation
[3] = Post implant serum concentration of antibiotic; assay type: in vivo; settings: other: implantation
[4] = 2 h, Left, read-out: Average Tissue concentration
[5] = 2 h, Right, read-out: Average Tissue concentration
[6] = 6 h, Left, read-out: Average Tissue concentration
[7] = 6 h, Right, read-out: Average Tissue concentration
[8] = 24 h, Left, read-out: Average Tissue concentration
[9] = 24 h, Right, read-out: Average Tissue concentration
[10] = after about 2 hours, range worded for embodiments, see Table 7, read-out: tissue concentration
[11] = after about 6 hours, range worded for embodiments, see Table 7, read-out: tissue concentration
[12] = after about 24 hours, range worded for embodiments, see Table 7, read-out: tissue concentration
[13] = after about 2 hours, range worded for embodiments, see Table 8
[14] = after about 6 hours, range worded for embodiments, see Table 8
[15] = after about 2 hours, range worded for embodiments, see Table 9
[16] = after about 6 hours, range worded for embodiments, see Table 9
[17] = after about 24 hours, range worded for embodiments, see Table 9

concentration at 2 h [1, 4] | concentration at 2 h [1, 5] | concentration at 6 h [1, 6] | concentration at 6 h [1, 7] | concentration at 24 h [1, 8] | concentration at 24 h [1, 9] | concentration at 2 h [1, 10] | concentration at 6 h [1, 11] | concentration at 24 h [1, 12] | concentration at 2 h ([2]; 2 h, Left) | concentration at 6 h ([2]; 6 h, Left) | concentration at 6 h ([2]; 6 h, Right) | concentration at 2 h [2, 13] | concentration at 6 h [2, 14] | concentration at 2 h ([3]; 2 h) | concentration at 6 h ([3]; 6 h) | concentration at 24 h ([3]; 24 h) | concentration at 2 h [3, 15] | concentration at 6 h [3, 16] | concentration at 24 h [3, 17] | SMILES | further results
 |  |  |  |  |  |  |  |  |  |  |  |  |  |  |  |  |  |  |  | O=S(=O)([O-])CCS.[Na+] [MESNA, sodium 2-mercaptoethane sulfonate] | myofibroblast formation (myofibroblast formation): diminish myofibroblast formation
700 ng/mL | 783 ng/mL | 2680 ng/mL | 2600 ng/mL | 1330 ng/mL | 1840 ng/mL | 650 to 800 ng/mL | 2550 to 2750 ng/mL | 1200 to 1900 ng/mL | 16400 ng/mL | 26800 ng/mL | 207000 ng/mL | 15000 to 17000 ng/mL | 25000 to 210000 ng/mL | 46.5 ng/mL | 79.1 ng/mL | 69.4 ng/mL | 30 to 60 ng/mL | 60 to 100 ng/mL | 50 to 90 ng/mL | CN(C)c1ccc(O)c2c1C[C@H]1C[C@H]3[C@H](N(C)C)C(O)=C(C(N)=O)C(=O)[C@@]3(O)C(O)=C1C2=O [Minocycline] | 
765 ng/mL | 1270 ng/mL | 2080 ng/mL | 2210 ng/mL | 4040 ng/mL | 2720 ng/mL | 600 to 1400 ng/mL | 1900 to 2300 ng/mL | 2600 to 4200 ng/mL | 2020 ng/mL | 19600 ng/mL | 100000 ng/mL | 1000 to 20000 ng/mL | 15000 to 110000 ng/mL | 27.1 ng/mL | 20.8 ng/mL | 44.3 ng/mL | 15 to 45 ng/mL | 10 to 40 ng/mL | 30 to 60 ng/mL | CO[C@H]1/C=C/O[C@@]2(C)Oc3c(C)c(O)c4c(O)c(c(/C=N/N5CCN(C)CC5)c(O)c4c3C2=O)NC(=O)/C(C)=C\C=C\[C@H](C)[C@H](O)[C@@H](C)[C@@H](O)[C@@H](C)[C@H](OC(C)=O)[C@@H]1C [Rifampin] | concentration at 2 h ([2]; 2 h, Right): 16400 ng/mL
